Data published in US11760978B2, “Cell culture medium for culturing organoid, culture method, and organoid” (KEIO UNIVERSITY, priority 2016, dated 2023).

Tested on: epithelial tumor cells derived from colon tumor
Assay: Subculturing (long-term culturing) of epithelial tumor cells derived from colon tumor, Example 4
Assay type: cell-based, human
Settings: SB202190 10 μM in medium, oxygen 20%
Experimental: “WIFNRA medium”, “W^AfmIFNRA medium” and “WENRAS” medium were prepared using the same method as in section (2) of Example 4. In addition, recombinant human R-spondin 1 (R&D Systems) was added to commercially available Advanced DMEM/F-12 medium (Thermo Fisher Scientific) to a final concentration of 1 μg/mL followed by the addition noggin (Peprotech) to a final concentration of 100 ng/mL and A83-01 (Tocris) to a final concentration of 500 nM. Moreover, a medium was prepared in which the Wnt3a-afamin complex prepared in (1) above was added to a final concentration 300 ng/mL, IGF1 (Biolegend) was added to a final concentration of 100 ng/mL, FGF2 (Peprotech) was added to a final concentration of 50 ng/mL, and […] (Sigma-Aldrich) was added to a final concentration of 10 μM (and the resulting medium may be referred to as “W^AfmIFNRAS medium”).
Epithelial tumor cells were obtained using the same method as in section (2) of Example 1. Next, the epithelial tumor cells were seeded in a 48-well plate together with 25 μL of Matrigel® (BD Bioscience). The “WIFNRA medium”, “W^MmIFNRA medium”, “WENRAS medium” and “WAfmIFNRAS medium” prepared in (2) above were added in 250 μL aliquots to the wells seeded with epithelial tumor cells followed by culturing at 37° C. and oxygen concentration of 20%. The medium was replaced every two days from the start of culturing. […]

Oc1ccc(-c2nc(-c3ccncc3)c(-c3ccc(F)cc3)[nH]2)cc1 [SB202190, 4-(4-fluorophenyl)-2-(4-hydroxyphenyl)-5-(4-pyridyl)-1H-imidazole]
toxicity to epithelial tumor cells: exhibited toxicity
